Laboratory results published in ChEMBL document CHEMBL1201862, “PubChem BioAssay data set” (2004).
Calls of active or inactive are those of the source.

Key:
[1] = HepG2 cell cytotoxicity, dose response, cytotoxicity control, plate reader, cherry-pick, antagonist series (AID 743416); type: functional, cell-based
[2] = LGR2 antagonists, dose response, cell-based, HEK293, CRE-luciferase reporter, cherry pick, set 2 (AID 743343); type: functional;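 further: transfected cells were stimulated with diluted bursicon conditioned medium after compound addition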
[3] = MC4R antagonists, dose response, counter-screen for LGR2 antagonist project, cell-based, plate reader, cherry pick (AID 743444); type: functional;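 further: transfected HEK 293 cells stimulated with alpha-MSH peptide; potency of inhibitors of the alpha-MSH evoked signal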
[4] = HeLa cell cytotoxicity, dose response, cytotoxicity control for MgcRacGAP inhibitor project (AID 624300); type: functional
[5] = target: T1, Rac GTPase-activating protein 1 (Homo sapiens, UniProt Q9H0H5); assay: MgcRacGAP GTPase-activating activity inhibitors, confirmation, biochemical, ADP Hunter fluorescence, primary and confirmatory (AID 624330); type: functional
T1 sequence (Q9H0H5 whole entry): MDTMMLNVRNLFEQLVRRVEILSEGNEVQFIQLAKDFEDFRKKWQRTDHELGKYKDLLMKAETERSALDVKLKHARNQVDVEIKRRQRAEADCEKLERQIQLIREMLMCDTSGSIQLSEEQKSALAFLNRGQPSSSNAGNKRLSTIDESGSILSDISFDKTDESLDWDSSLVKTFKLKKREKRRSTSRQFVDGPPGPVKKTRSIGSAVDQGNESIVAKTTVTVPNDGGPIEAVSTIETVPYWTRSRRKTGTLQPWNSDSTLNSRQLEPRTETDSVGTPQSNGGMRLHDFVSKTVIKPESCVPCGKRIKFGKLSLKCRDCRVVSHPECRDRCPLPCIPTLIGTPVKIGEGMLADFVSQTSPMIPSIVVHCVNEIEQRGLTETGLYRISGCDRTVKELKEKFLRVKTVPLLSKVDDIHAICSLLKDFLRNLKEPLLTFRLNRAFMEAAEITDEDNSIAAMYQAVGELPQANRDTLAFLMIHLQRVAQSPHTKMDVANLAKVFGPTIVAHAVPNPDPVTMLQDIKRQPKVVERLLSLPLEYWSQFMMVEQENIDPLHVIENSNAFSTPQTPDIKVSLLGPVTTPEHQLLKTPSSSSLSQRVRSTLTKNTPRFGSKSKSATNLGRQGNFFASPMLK

[6] = target: E3 ubiquitin-protein ligase Mdm2 (Homo sapiens, UniProt Q00987); assay: enhancers of MDM2-luciferase reporter signal, concentration-effect titration, project on inhibitors of MDM2 ubiquitin ligase, cellular assay, luminescent readout, 384-well plate format (AID 1394); type: functional;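 further: MDM2 E3 inhibitors raise luminescence so EC50 is for signal enhancement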
[7] = target: Mitogen-activated protein kinase 10 (Homo sapiens, UniProt P53779); assay: Dose response biochemical screening assay for inhibitors of c-Jun N-Terminal Kinase 3 (JNK3). [Related pubchem assays: 746 ]
[8] = inhibitors of PGC1a acetylation in cells, dose response, cell-based, cherry-picked samples (AID 720514); type: functional;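 further: potency may reflect raised or lowered acetylation signal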
[9] = NIH-3T3 fibroblast cytotoxicity, dose response, cytotoxicity control, cell-based, fluorescence, Alamar Blue, secondary assay (AID 2327); type: functional;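 further: NIH-3T3 mouse fibroblasts cultured with fluconazole at 8 µg/mL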
[10] = target: T2, Heat shock factor protein 1 (Mus musculus, UniProt P38532); assay: inhibition of MG132-induced HSE-luciferase signal, confirmation, cell-based, NIH3T3, luminescence, dose retest (AID 2382); type: functional;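 further: NIH3T3 fibroblasts with HSF1-driven luciferase reporter stressed by proteasome inhibitor MG132; luminescence from HSF1-driven luciferase expression after 8 hours of MG132 stress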
T2 sequence (P38532 whole entry): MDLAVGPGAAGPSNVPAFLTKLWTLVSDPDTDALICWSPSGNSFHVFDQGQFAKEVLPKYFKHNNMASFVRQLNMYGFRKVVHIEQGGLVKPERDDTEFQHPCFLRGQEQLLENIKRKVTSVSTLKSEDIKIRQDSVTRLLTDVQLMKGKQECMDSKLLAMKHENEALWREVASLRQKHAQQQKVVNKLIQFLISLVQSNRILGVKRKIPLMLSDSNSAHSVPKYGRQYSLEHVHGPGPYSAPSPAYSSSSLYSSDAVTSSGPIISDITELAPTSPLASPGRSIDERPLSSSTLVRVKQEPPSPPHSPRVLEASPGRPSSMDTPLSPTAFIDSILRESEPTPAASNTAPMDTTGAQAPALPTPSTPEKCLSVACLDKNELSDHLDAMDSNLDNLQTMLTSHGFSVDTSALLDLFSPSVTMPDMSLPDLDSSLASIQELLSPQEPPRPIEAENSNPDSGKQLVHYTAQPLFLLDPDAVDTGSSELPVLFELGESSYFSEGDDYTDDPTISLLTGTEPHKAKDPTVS

[11] = C. albicans growth with fluconazole, confirmation, fluorescence, retest (AID 2467); type: functional, cell-based
[12] = inhibitors of intracellular T. cruzi replication, confirmation, NIH3T3 host cells, beta-gal luminescence (AID 2044); type: functional, cell-based;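 further: intracellular parasites grown in NIH/3T3 mouse fibroblasts as host cells; luminescent beta-galactosidase reporter signal from transgenic T. cruzi replicating inside host cells; inhibitors lower the luminescence signal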
[13] = cytotoxicity toward NIH3T3 fibroblasts, dose response, counter-screen, cell-based, ATP luminescence, mouse fibroblasts (AID 2010); type: functional;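 further: cells exposed to compound for about 90 hours before reading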
[14] = target: T3, Replicative DNA helicase DnaB (Mycobacterium tuberculosis, UniProt P9WMR3); assay: DnaB intein splicing inhibitors, dose response, biochemical, cell-free fluorescence (AID 449749); type: functional
T3 sequence (P9WMR3 whole entry): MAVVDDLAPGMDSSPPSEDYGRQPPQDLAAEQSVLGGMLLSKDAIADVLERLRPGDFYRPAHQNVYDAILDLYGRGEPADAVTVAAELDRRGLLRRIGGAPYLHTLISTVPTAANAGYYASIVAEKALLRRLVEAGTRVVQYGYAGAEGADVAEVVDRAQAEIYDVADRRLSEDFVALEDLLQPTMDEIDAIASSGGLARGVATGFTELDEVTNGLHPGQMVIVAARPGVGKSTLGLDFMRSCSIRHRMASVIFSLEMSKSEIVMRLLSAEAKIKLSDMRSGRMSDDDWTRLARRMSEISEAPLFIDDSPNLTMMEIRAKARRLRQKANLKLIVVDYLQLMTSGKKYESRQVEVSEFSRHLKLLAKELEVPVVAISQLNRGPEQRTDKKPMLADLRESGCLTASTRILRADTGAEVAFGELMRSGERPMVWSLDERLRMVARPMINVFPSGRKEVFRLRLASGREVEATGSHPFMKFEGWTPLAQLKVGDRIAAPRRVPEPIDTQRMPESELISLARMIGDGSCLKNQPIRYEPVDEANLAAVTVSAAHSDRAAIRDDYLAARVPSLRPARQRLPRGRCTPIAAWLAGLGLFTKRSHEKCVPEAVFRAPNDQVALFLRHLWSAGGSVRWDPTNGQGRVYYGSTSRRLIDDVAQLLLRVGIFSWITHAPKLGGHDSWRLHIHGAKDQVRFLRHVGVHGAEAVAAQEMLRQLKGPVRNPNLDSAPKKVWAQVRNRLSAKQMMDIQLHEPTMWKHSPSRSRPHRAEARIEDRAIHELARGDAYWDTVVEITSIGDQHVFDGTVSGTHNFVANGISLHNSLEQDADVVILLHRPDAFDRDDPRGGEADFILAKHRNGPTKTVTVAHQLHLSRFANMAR

Protein RecA = target: T4, Protein RecA (Mycobacterium tuberculosis, UniProt P9WHJ3); assay: Fluorescence Cell-Free Homogeneous Dose Retest to Identify Inhibitors of RecA-Intein Splicing Activity. [Related pubchem assays (depositor defined):AID2097, AID2223, AID489010, AID492950]; type: functional
T4 sequence (P9WHJ3 whole entry): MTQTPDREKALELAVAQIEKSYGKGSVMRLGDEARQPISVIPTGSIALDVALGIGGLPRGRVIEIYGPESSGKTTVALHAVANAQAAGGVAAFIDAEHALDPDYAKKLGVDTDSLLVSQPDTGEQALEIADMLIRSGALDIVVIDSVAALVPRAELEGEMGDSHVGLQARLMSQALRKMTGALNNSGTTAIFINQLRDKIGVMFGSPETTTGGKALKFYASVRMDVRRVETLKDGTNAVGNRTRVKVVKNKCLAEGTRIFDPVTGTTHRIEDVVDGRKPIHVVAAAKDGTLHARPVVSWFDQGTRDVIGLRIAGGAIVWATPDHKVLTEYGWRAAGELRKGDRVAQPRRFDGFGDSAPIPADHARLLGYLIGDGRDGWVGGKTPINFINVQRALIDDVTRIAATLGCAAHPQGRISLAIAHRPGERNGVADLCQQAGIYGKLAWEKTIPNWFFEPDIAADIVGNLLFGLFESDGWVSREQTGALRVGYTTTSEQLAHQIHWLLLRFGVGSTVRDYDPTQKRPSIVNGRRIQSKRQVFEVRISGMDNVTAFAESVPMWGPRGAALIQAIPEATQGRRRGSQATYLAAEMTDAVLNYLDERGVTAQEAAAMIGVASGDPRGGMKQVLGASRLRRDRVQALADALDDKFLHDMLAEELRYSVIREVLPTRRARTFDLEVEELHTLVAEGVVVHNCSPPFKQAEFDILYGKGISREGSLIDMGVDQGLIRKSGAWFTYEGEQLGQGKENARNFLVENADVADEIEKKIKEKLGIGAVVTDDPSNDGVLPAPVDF

[15] = Fluorescence-based cell-based high throughput dose response assay for inhibitors of the interaction of nucleotide-binding oligomerization domain containing 2 (NOD2) and the receptor-interacting serine-threonine kinase 2 (RIPK2).; type: functional; conditions: Homo sapiens
Paired box protein Pax-8 = Paired box protein Pax-8 (Homo sapiens, UniProt Q06710); assay: inhibitors of PAX8-driven TPO luciferase reporter, dose response, RMG-I cells, cherry-pick (AID 687027); type: functional, cell-based;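 further: luciferase reporter driven by Pax8 target thyroperoxidase promoter measured by SteadyGlo luminescence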
[16] = A2780 ovarian cancer cell cytotoxicity, dose response, cytotoxicity control, plate reader, dry powder samples (AID 743046); type: functional, cell-based
[17] = NIH:OVCAR-3 ovarian cancer cell cytotoxicity, dose response, PAX8 inhibitor project, plate reader, dry powder samples (AID 743044); type: functional, cell-based
[18] = cytotoxicity in OVCAR8 ovarian cancer cells, dose response, PAX8 project, cell-based, plate reader, dry powder samples (AID 743197); type: functional; conditions: OVCAR-8
[19] = P. falciparum 3D7-ScDHODH growth inhibitors, dose response, SYBR Green, dry powder samples (AID 1159570); type: functional, cell-based;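 further: parasite growth measured after 72 hours of compound exposure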
[20] = HepG2 cell cytotoxicity, dose response, cytotoxicity control, plate reader, dry powder samples (AID 1159569); type: functional, cell-based;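 further: inhibitor potency with signal falling toward the positive control level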
[21] = P. falciparum Dd2 growth inhibitors, dose response, SYBR Green, cherry-picked samples (AID 1159567); type: functional, cell-based
[22] = P. falciparum Dd2 growth inhibitors, dose response, SYBR Green, dry powder samples (AID 1159566); type: functional, cell-based;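 further: potency for growth inhibition with lower SYBR green DNA signal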
[23] = P. falciparum ATP4 D1247Y mutant growth inhibitors, dose response, NITD609-resistant line, SYBR Green, dry powder (AID 1159571); type: functional, cell-based;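 further: parasites synchronized at ring stage by sorbitol before testing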

Chain of Paired box protein Pax-8 (Q06710 whole entry): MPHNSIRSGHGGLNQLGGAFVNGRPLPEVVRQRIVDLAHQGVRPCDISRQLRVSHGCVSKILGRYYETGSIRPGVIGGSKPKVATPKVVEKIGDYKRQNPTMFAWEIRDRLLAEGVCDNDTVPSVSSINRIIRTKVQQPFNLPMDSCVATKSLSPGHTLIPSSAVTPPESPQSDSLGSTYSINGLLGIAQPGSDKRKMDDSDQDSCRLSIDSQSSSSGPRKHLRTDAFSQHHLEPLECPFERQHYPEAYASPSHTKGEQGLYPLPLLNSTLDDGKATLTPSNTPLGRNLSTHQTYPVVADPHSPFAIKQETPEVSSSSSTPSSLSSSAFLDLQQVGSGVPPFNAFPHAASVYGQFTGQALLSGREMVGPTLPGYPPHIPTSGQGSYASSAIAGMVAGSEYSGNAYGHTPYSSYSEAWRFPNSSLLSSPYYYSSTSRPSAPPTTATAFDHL
Chain of Mitogen-activated protein kinase 10 (P53779 whole entry): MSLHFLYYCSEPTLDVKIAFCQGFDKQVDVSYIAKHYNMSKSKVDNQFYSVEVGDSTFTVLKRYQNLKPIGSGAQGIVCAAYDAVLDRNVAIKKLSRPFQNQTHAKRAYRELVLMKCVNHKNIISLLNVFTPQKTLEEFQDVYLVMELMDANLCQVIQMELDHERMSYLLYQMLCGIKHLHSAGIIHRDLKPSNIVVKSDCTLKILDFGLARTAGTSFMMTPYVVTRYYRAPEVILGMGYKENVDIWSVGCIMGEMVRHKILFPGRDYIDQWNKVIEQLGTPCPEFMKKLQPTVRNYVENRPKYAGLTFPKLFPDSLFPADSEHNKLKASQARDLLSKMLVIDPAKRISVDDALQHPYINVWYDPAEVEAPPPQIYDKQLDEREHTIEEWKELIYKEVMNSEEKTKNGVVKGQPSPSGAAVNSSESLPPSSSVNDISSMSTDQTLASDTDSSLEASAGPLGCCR
Chain of E3 ubiquitin-protein ligase Mdm2 (Q00987 whole entry): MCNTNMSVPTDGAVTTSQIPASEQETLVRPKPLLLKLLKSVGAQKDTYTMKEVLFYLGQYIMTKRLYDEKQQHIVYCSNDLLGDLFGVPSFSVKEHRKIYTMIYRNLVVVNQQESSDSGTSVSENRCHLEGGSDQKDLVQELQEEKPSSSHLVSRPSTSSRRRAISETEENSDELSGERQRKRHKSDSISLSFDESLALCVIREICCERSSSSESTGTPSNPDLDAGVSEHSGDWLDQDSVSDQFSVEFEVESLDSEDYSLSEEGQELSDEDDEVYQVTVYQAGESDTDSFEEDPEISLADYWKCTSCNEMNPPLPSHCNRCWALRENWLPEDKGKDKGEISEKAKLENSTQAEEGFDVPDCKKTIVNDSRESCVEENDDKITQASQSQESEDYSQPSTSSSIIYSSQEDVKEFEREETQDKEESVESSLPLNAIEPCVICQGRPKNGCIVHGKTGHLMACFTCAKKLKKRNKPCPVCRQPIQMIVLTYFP

Cc1ccc(-c2csc(Nc3ccccn3)n2)cc1
AC50 [1]: > 52 µM (inactive)
AC50 [2]: 2.74 µM (active)
AC50 [3]: 3.3 µM (active)

CCCc1cc(S)n2c(nc3ccccc32)c1C#N
CC50 [4]: 100 µM (active)
IC50 [5]: 52.2 µM (active)

Cc1ccc(C(=O)NN2C(=O)/C(=C/c3cccn3C)SC2=S)cc1
EC50 [6]: 0.09 µM (not active)

CCOc1ccc(C2CC(=O)NC3=C2C(=O)CCC3)cc1 (configuration not stated)
IC50 [7]: > 93.1 µM (not active)

O=C(c1ccc(F)cc1)N(C(=O)c1ccc(F)cc1)c1ncccn1
AC50 [8]: 25.9 µM (active)

CC(C)=C1SC(N2CCN(c3cccc(C(F)(F)F)c3)CC2)=NC1=O
EC50 [6]: 18.7 µM (not active)

Cc1ccc(-n2ncc(Br)c(Br)c2=O)cc1
EC50 [9]: 2.27 µM (inconclusive)
EC50 [10]: 5.57 µM (active)
EC50 [11]: 0.443 µM (active)
EC50 [12]: 2.23 µM (active)
EC50 [13]: 1.97 µM (active)
AC50 [14]: 20.9 µM (active)
EC50 (Protein RecA): 4.75 µM (active)
IC50 [15]: 3.25 µM (active)

CC(=O)N1CCN(c2ccc(Nc3ncnc4c3oc3ccccc34)cc2)CC1
CC50 [4]: 58.3 µM (active)
IC50 [5]: 46 µM (active)

CCCN1Cc2cccc(C(=O)NCc3ccc4c(c3)OCO4)c2C1=O
IC50 [7]: 31.8 µM (not active)

COc1ccc(S(=O)(=O)Nc2ccc3c(c2)C(=O)N([C@@H](C)CO)C[C@H](C)[C@@H](CN(C)Cc2ccc(C(F)(F)F)cc2)OCCCC[C@@H](C)O3)cc1
AC50 (Paired box protein Pax-8): 9.62 µM (active)
AC50 [16]: 56.2 µM (active)
AC50 [17]: 23 µM (active)
AC50 [18]: 23.6 µM (active)

C[C@H]1CCCCO[C@@H](CN(C)Cc2ccc(Cl)c(Cl)c2)[C@@H](C)CN([C@@H](C)CO)C(=O)c2cc(NC(=O)Nc3ccc(C(F)(F)F)cc3)ccc2O1
AC50 (Paired box protein Pax-8): 4.77 µM (active)
AC50 [16]: 59.1 µM (active)
AC50 [17]: 22.2 µM (active)
AC50 [18]: > 70 µM (inactive)

C[C@@H]1CN([C@H](C)CO)C(=O)c2cc(NC(=O)CCCCCC(=O)Nc3ccccc3N)ccc2O[C@@H](C)CCCCO[C@H]1CN(C)Cc1ccc(Cl)c(Cl)c1
AC50 (Paired box protein Pax-8): 12.2 µM (active)
AC50 [18]: 65.4 µM (active)

C[C@@H]1CCCCO[C@@H](CN(C)C(=O)c2ccccc2)[C@H](C)CN([C@H](C)CO)C(=O)c2cc(NC(=O)Nc3ccc(C(F)(F)F)cc3)ccc2O1
AC50 (Paired box protein Pax-8): 3.53 µM (active)
AC50 [17]: 36.5 µM (active)
AC50 [18]: > 70 µM (inactive)

Cc1ccc(-c2ccc([C@H]3[C@@H](CO)N4CCCCN(C(=O)Nc5cccc(F)c5)C[C@H]34)cc2)cc1
AC50 (Paired box protein Pax-8): 21.7 µM (active)
AC50 [16]: 39.1 µM (active)
AC50 [17]: 37.5 µM (active)

C/C(=N\CCCn1ccnc1)C1=C(O)c2ccccc2C1=O
IC50 [7]: 35.7 µM (not active)

COc1ccc2c3c(n(C)c2c1)[C@H](CO)N(C(=O)Nc1ccc(F)cc1)CC31CCN(Cc2cccnc2)CC1
AC50 [19]: 1.52 µM (active)
AC50 [20]: > 100 µM (inactive)
AC50 [21]: 3.02 µM (active)
AC50 [22]: 1.61 µM (active)
AC50 [23]: 2.03 µM (active)

CN(C)C(=O)c1ccc(-c2ccc([C@@H]3[C@@H]4CN(Cc5ccc6c(c5)OCO6)C[C@H]3N4)cc2)cc1
AC50 [19]: 4.61 µM (active)
AC50 [20]: 22.6 µM (active)
AC50 [21]: 1.13 µM (active)
AC50 [22]: 2.25 µM (active)
AC50 [23]: 2.58 µM (active)
